Reference: patent US20130023587A1, “COMPOSITIONS AND METHODS FOR THE TREATMENT OF CANCER” (DUKE UNIVERSITY, priority 2010, published 2013)
“Also recorded” adds a separate entry of the source.

How the values were obtained:
R3230 Ac = assay: Uptake kinetics of 14C-lactate or 14C-glucose in vivo (3-compartment model); design: species or system rat; settings: 14C-labeled metabolite infused i.v., fitted rate constant
Experimental: Uptake kinetics of ^14C-lactate in vivo: Kinetics of ^14C-lactate or ^14C-glucose uptake were studied using a novel implantable fiber optic radiation detection probe provided by Sicel Technologies Inc., Durham, N.C. Time uptake curves from tumor, subcutaneous, and blood compartments were analyzed using a 3-compartment model from which were derived parameters related to the transfer coefficients in and out of the tumor and blood clearance (see Supplemental methods for detail). The apparatus detected beta radiation from ^14C, which is proportional to ^14 C-lactate or ^14C-glucose concentration. Probes were inserted into tumors of anesthetized rats (Isoflurane as above) and subcutaneous tissue as a control. Each probe was calibrated using ^14C-glucose solutions of known concentration (μCi/mL) immediately before the experiment. After a stabilization period of 50 min, 50 μCi of ^14C-lactate or ^14C-glucose was infused intravenously. Data were recorded in two-minute intervals over 3 h. Baseline (background, dark current values) were subtracted from each time point.
Normalization to the calibration solution was done to control for variations in probe performance and length of probe used in different tumors. The relationship between photons detected and concentration (μCi/mL) was linear, based on experiments done by the company. Data were graphed as the change in μCi/mL over time, and normalized to dose/body weight (μCi/g) to obtain a standardized uptake value (SUV).
In separate animals, blood samples (300 μL-500 μL) were taken at 0, 4, 7, 10, 15, 25, 30, 60, 100, and 160 minutes from the arterial cannula following ^14C-radioisotope infusion. Samples were centrifuged, and plasma collected and weighed. Plasma activities were measured in a liquid scintillation counter (Packard Tri-Carb 1500, Perkin Elmer Life and Analytical Sciences Inc., Boston Mass.) and isotope concentrations (μCi/g) were calculated. Blood activity data were normalized to dose/body weight. Time uptake curves from tumor, subcutaneous, and blood compartments were analyzed using a 3-compartmental model.
The equations defining tracer kinetics were the following:
dCp/dt=−(k1+k4+k0)Cp+k2Ct+k5Cs (1)
Cp, Ci, and Cs were the tracer concentration in central blood compartment, tumor cells, and subcutaneous tissue, respectively. Ct was the measured compound concentration in tumor. Vb was the vascular volume fraction. Due to the nature of the measurement, the tumor probe collected photon counts from both tumor cells and nearby vasculature. The last equation described vascular contribution to the overall photon counts in the tumor tissue. Ki was the transfer constant between each compartment. The averaged isotope concentration in plasma was used to create an empirical blood curve to be used in the model. […]

R3230 cells [1] = assay: Measurement of metabolic rates (glucose consumption) in cultured R3230 cells; type: cell-based, rat
Experimental: (§1) Tissue culture and measurement of metabolic rates: The R3230 rat mammary carcinoma was originally derived from a spontaneous mammary carcinoma of the Fischer 344 rat (Hilf et al, 1965; Lindberg et al, 1996). Cells were exposed to 6% or 0.5% oxygen (Vaupel et al, 1991) at 37° C., and […] in glucose- and serum-free DMEM, while dishes were placed on a slow-moving rocker. Cells were counted and media samples were collected at the beginning and end of the experiment, and analyzed for glucose and lactate content using a CMA microdialysis analyzer (CMA, Sweden).

R3230 cells [2] = assay: Survival of R3230 cells by counts of attached cells; type: cell-based, rat
Experimental: (F) Effect of Na-lactate concentration on cellular NAD/NADH ratio (expressed as light absorbance ratio, 260/340 nm).
as §1

R3230 cells [3] = assay: pHi measurements with BCECF-AM; type: cell-based, rat; settings: fluorescent dye BCECF-AM
Experimental: pHi measurements: Cells were grown on glass coverslides and incubated with BCECF-AM (Invitrogen) at 5 μM for 20 min, and imaged on an inverted fluorescence microscope, with excitation at 440 and 490 nm, emission 535 nm. Ratiometric pH calibration was done in mixture ratios of buffers containing 110 mM K2HPO4 or 135 mM KH2PO4, and 20 mM NaCl, respectively. Nigericin was added at 10 μM (Franck et al, 1996) and pH expressed as ratios of grayscale values from stacks of calibration images taken from the nigericin-treated cells, imaged at 440 and 490 nm (Franck et al, 1996).

R3230 cells [4] = assay: Measurement of redox changes (NAD+/NADH optical density 260/340 nm); type: cell-based, rat; settings: within 2 minutes after isovolumic addition
Experimental: Measurement of redox changes: Cells were trypsinized, washed, and brought to 5×10^6/mL in PBS. 1 mL of cell suspension was scanned for optical density in a cuvette at 260 nm (NAD^+) and 340 nm (NADH+H^+). Various concentrations of Na-lactate in PBS were added at 20 μL/mL.

R3230 cells [5] = assay: Clonogenic assay; type: cell-based, rat
Source text: Cells were washed and returned to normal growth medium. 14 days later, colonies were stained with crystal violet and counted.

MCT-1 = biological target: T1, MCT-1 (Rattus norvegicus, UniProt P53987); assay: 13C NMR of lactate uptake and catabolism to alanine and glutamate in R3230 cells; type: cell-based; settings: 5 mM CHC
T1 construct: endogenous in cells; host or cells: R3230 rat mammary carcinoma cells
T1 sequence (P53987 1-494): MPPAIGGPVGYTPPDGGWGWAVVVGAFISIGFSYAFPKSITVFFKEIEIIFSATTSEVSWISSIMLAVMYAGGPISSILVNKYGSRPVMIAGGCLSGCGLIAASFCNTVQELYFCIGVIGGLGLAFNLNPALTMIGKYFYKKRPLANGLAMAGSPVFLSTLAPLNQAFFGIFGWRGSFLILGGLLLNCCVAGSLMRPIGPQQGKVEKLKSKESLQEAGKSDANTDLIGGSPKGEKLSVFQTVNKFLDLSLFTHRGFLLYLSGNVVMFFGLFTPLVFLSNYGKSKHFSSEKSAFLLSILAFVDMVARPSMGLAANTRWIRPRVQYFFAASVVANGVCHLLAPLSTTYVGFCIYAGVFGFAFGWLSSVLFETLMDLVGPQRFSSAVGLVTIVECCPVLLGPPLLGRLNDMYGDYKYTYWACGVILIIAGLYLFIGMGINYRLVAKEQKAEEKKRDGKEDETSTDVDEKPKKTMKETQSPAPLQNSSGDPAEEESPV
Experimental: ^1H-NMR and ^13C-NMR: R3230 cells were grown to 60% confluency. Cells were washed and exposed to DMEM with varying concentrations of ^13C-methyl labeled L-lactate solution (Sigma, St. Louis, Mo.), without serum and glucose. Cells were washed, mounted with 60% perchloric acid, scraped down, and centrifuged at 8,000 G for 5 min; PBS (20% vol/vol) and 98% deuterated water (10% vol/vol) (Sigma, St. Louis, Mo.) were added to supernatants to a total of 600 uL for NMR. For medium sample analysis, 10% vol/vol deuterated water was added to the medium before NMR analysis. NMR spectra were recorded on a Varian 500 MHz VNMRS spectrometer equipped with a Dell Optiplex 755 data system and a 5 mm Varian inverse probe. ^1H NMR spectra were obtained with a spectral width (SW) of 5.5 kHz, a 67 pulse flip angle (6 us), a 6.4 s acquisition time (AT), a 2 sec water presaturation pulse and relaxation delay (RD), and digitized using 64000 points to obtain a digital resolution of 0.172 Hz per point. ^1H-decoupled ^13C spectra were recorded at 125 MHz with a 32051.3 Hz SW, a 60 pulse flip angle (6.5 us), a 2.0 s AT, a 0.7 s RD and digitized into 130,000 points to yield a digital resolution of 0.493 Hz per point.

CC(O)C(=O)O (stereo not drawn) [Lactate, lactate]
K1 Transfer rate into tumor (R3230 Ac; R3230 Ac tumour-bearing rats): 0.2381
K2 Transfer rate out of tumor (R3230 Ac; R3230 Ac tumour-bearing rats): 0.06182
K4 Transfer rate into SQ (R3230 Ac; subcutaneous tissue): 0.00144
K5 Transfer rate out of SQ (R3230 Ac; subcutaneous tissue): 0.07439
effect of escalated extracellular lactate on glucose consumption (R3230 cells [1]; glucopenic conditions): inhibited glucose consumption in a concentration-dependent manner
inhibition of glucose consumption (R3230 cells [1]; glucose 0.2 mM, 18 hr incubation, 6% O2): 41%
effect on survival under glucose starvation (R3230 cells [2]; lactate 2.5 mM): rendered a survival advantage
Na-lactate concentration leading to decreased survival (counts of attached cells) (R3230 cells [2]; under glucose deprivation): > 2.5 mM
effect on intracellular pH (R3230 cells [3]): concentration-dependent reduction of intracellular pH
effect on NAD+/NADH2+ (reductive stress) (R3230 cells [4]): concentration-dependent drop

N#CC(=Cc1ccc(O)cc1)C(=O)O [CHC, α-cyano-4-hydroxycinnamate]
effect on clonogenic survival, higher concentrations of CHC (R3230 cells [5]; any ambient lactate): cytotoxic, independent of ambient lactate
effect on clonogenic survival, low concentrations of CHC (R3230 cells [5]; high ambient lactate (>5mM) versus low lactate (0-5 mM)): selectively reduced R3230 clonogenic survival at high ambient lactate
effect on lactate catabolism to alanine and glutamate (MCT-1; 40 mM 13C-lactate, 24 h, glucose/serum free): effectively inhibited catabolism of lactate to glutamate and alanine; also recorded: inhibited breakdown of lactate and conversion into alanine and glutamate
effect on lactate uptake, low lactate (MCT-1; lactate 5 mM): effectively inhibited lactate uptake
effect on lactate uptake, high lactate (MCT-1; lactate 40 mM): lactate uptake persisted
